Measurements reported in paper PMC11044151, “Development of Half-Sandwich Ru, Os, Rh, and Ir Complexes Bearing the Pyridine-2-ylmethanimine Bidentate Ligand Derived from 7-Chloroquinazolin-4(3H)-one with Enhanced Antiproliferative Activity” (ACS Omega, 2024).

How the values were obtained:
[1] = test system: A549; assay: Neutral red uptake antiproliferative assay, A549
From the text: (§1) To assess the impact of conjugating half-sandwich complexes with amines 1 via an imine-pyridine ligand on biological activity, we examined the antiproliferative potential of (R)- and (S)-1 and organometallic conjugates 3a–d and 4a–d in selected human cancer cell lines: alveolar basal epithelial cell adenocarcinoma (A549), colorectal adenocarcinomas (Colo205 and SW620), colorectal carcinoma (HCT116), hepatocellular carcinoma (HepG2), and breast adenocarcinoma (MCF7). The choice of cell lines was dictated by results of previously published clinical trials on ispinesib.[49],[50]
(§2) Cell lines used in this study were purchased from the American Type Culture Collection via LGC Standards. Human normal lung fibroblasts (MRC-5), alveolar basal epithelial cell adenocarcinoma (A549), colorectal adenocarcinoma (Colo205), hepatocellular carcinoma (HepG2), breast adenocarcinoma (MCF7), and colorectal adenocarcinoma (SW620) and its MDR variants[55] were cultured in standard conditions (37 °C, 5% CO2, 100% relative humidity) in high glucose DMEM medium supplemented with GlutaMax, HEPES (ThermoFisher Scientific) and 10% fetal bovine serum (EURx, Poland). All cell lines were tested for Mycoplasma contamination using a MycoProbe mycoplasma detection kit (R&D System).
(§3) For this purpose, neutral red uptake assay was performed. 10^4 of cells were seeded per well of a 96-well plate and left overnight to allow cells to attach to the surface. Then, the cells were exposed to a desired concentration of tested compounds. Stock solutions were prepared in DMSO and were used immediately after preparation. The final concentration of DMSO was constant and nontoxic (0.1% v/v). After 70 h of culture, neutral red was added to the final concentration of 1 mM. After 2 h of incubation with the dye, the medium was aspirated and cells were washed with ice-cold PBS. The dye was released using 100 μL of the solubilizer (1% acetic acid in 50% ethanol) on an orbital shaker (10 min). The absorbance at 540 nm was measured using an EnVision multilabel plate reader (PerkinElmer). […] The IC90 and IC50 parameters were calculated using GraphPad Prism v9 software using the five-parameter nonlinear logistic regression model.

[2] = test system: HCT116; assay: cells
From the text: as §1, §3

[3] = test system: Colo205; assay: cells
From the text: as §1, §2, §3

[4] = test system: HepG2; assay: cells
From the text: as §1, §2, §3

[5] = test system: MCF7; assay: cells
From the text: as §1, §2, §3

[6] = test system: SW620; assay: Neutral red uptake antiproliferative assay, SW620; type: cell-based, human
From the text: as §1, §2, §3

[7] = test system: SW620C; assay: Neutral red uptake antiproliferative assay, MDR line SW620C; type: cell-based, human
From the text: (§4) Next, we evaluated the cytotoxicity of the synthesized complexes toward the panel of six multidrug-resistant (MDR) cell lines derived from SW620 and characterized by the overexpression of various ABC proteins, namely, ABCG2 (SW620C and SW620Mito), ABCC1 (SW620M and SW620E), and ABCB1 (SW620D, SW620E, and SW620V) (Table 3, Figures S29 and S32). […] The activity of the complexes derived from the ligand (S)-2 is also considerably higher than that of the compounds containing the ligand (R)-2. The cytotoxicity of both rhodium 4c and iridium 4d complexes is higher than that of amine (S)-1. In the case of 4c, the increase in cytotoxicity is low, with the highest value of 3.7-fold for the SW620Mito line. […] Compound 4d also exerts a 2.1- and 2.6-fold higher cytotoxicity than […] against the SW620C and SW620D lines.
(§5) For this purpose, neutral red uptake assay was performed. […] The results were presented as a percentage of control.

[8] = test system: SW620D; assay: Neutral red uptake antiproliferative assay, MDR line SW620D; type: cell-based, human
From the text: as §4, §5

[9] = test system: SW620E; assay: Neutral red uptake antiproliferative assay, MDR line SW620E; type: cell-based, human
From the text: as §4, §5

[10] = test system: SW620M; assay: Neutral red uptake antiproliferative assay, MDR line SW620M; type: cell-based, human
From the text: as §4, §5

[11] = test system: SW620V; assay: Neutral red uptake antiproliferative assay, MDR line SW620V; type: cell-based, human
From the text: as §4, §5

[12] = test system: SW620Mito; assay: Neutral red uptake antiproliferative assay, MDR line SW620Mito; type: cell-based, human
From the text: as §4, §5

[13] = test system: SW620 cells; assay: Cell cycle distribution by flow cytometry, SW620; type: cell-based, human; conditions: concentration equal to IC75 of (S)-1 / (R)-1, mean ± SEM, n = 3
Description: Ispinesib leads to the formation of monopolar mitotic spindles and a blockade of chromosome segregation in cancer cells. Using flow cytometry, we assessed the cell cycle distribution in the SW620 and SW620E cells exposed to the studied compounds for 24 and 48 h. […] Both complexes, 3c and 3d, decrease the percentage of cells in the G1/G0 phase and increase the percentage in the S and G2/M phases. […] Furthermore, prolonged exposure to the compounds increases the percentage of cells in the G2/M phase, with the most intensive effect observed for 3c and 3d.
SW620 and SW620E cells lines (vulnerable and resistant variants, respectively) were seeded in 6-well plates at a density of 10^5 cells per well. […] After 24 h, the cells were trypsinized and fixed with ice-cold 70% v/v ethanol. The cells were stained with 75 μM propidium iodide with 50 Kunitz units of RNase A in PBS for 30 min at 37 °C. All samples were analyzed using a LSRII flow cytometer (Becton Dickinson) at a PE channel ([…]). Cell cycle phase distribution was determined using a built-in cell cycle module (Watson pragmatic algorithm) by FlowJo 7.6.1 software.

[14] = test system: SW620 cells; assay: ROS generation, dihydrorhodamine 123 oxidation assay; type: cell-based, human; conditions: SW620, 1 μM compound, 4 h, DHR123 with 10 μM verapamil; vs control or (R)- and (S)-1
From the text: Metal complexes often induce reactive oxygen species (ROS) generation in cells,[51] which may increase their cytotoxic activity compared to purely organic molecules. To study the impact of the synthesized compounds on ROS production, we have measured the ROS generation in SW620 cells by the dihydrorhodamine 123 (DHR123) oxidation assay (Figure 9). However, there is no correlation between the antiproliferative potential and the ability of a compound to generate ROS.
Dihydrorhodamine 123 oxidation was used as an indicator of intracellular ROS production. For this purpose, SW620 cells were seeded in 6-well plates at a density of 10^5 cells per well. The cells were left overnight (time needed for them to attach to the surface). Then, 1 μM tested compounds were added along with 1 μM DHR123. Additionally, since DHR123 is a substrate of ABCB1 (which may interfere in this assay), 10 μM verapamil, an inhibitor of this protein, was added. The cells were cultured for an additional 4 h at 37 °C, and then the cells were harvested by trypsinization, resuspended in a complete medium, and analyzed using a LSRII flow cytometer (Becton Dickinson) in a FITC channel (530/30 nm). The results are presented as a percentage of control (median fluorescence in the presence of DMSO).

[15] = vs corresponding amine (R)-1 or (S)-1, 72 h
[16] = exposure time 72 h, n = 3, ABCG2-overexpressing MDR line
[17] = exposure time 72 h, n = 3, ABCB1-overexpressing MDR line

CC(C)[C@H](N=Cc1ccccn1)c1nc2cc(Cl)ccc2c(=O)n1Cc1ccccc1.Cc1ccc(C(C)C)cc1.F[P-](F)(F)(F)(F)F.[Cl-].[Ru+2] [Compound 4a, [(cym)Ru((S)-2)Cl]PF6]
IC50 ([1]; read-out: IC50 A549, exposure time 72 h, n = 3, 95% CI given): 3.25 µM
activity factor IC50(1)/IC50(3a–4d), A549 [1, 15]: (2.17)
IC50 ([2]; read-out: IC50 HCT116, exposure time 72 h, n = 3, 95% CI given): 3.76 µM
activity factor IC50(1)/IC50(3a–4d), HCT116 [2, 15]: (2.14)
increased cytotoxicity vs corresponding amine 1, Colo205 [3]: approximately 6 fold
IC50 ([3]; read-out: IC50 Colo205, exposure time 72 h, n = 3, 95% CI given): 0.939 µM
activity factor IC50(1)/IC50(3a–4d), Colo205 [3, 15]: (6.46)
IC50 ([4]; read-out: IC50 HepG2, exposure time 72 h, n = 3, 95% CI given): 1.89 µM
activity factor IC50(1)/IC50(3a–4d), HepG2 [4, 15]: (1.27)
increased cytotoxicity vs corresponding amine 1, MCF7 [5]: approximately 6 fold
IC50 ([5]; read-out: IC50 MCF7, exposure time 72 h, n = 3, 95% CI given): 0.634 µM
activity factor IC50(1)/IC50(3a–4d), MCF7 [5, 15]: (6.17)
IC50 ([6]; exposure time 72 h, n = 3, 95% CI given): 2.91 µM
activity factor IC50(1)/IC50(3a–4d), SW620 [6, 15]: (0.986)
IC50 [7, 16]: 4.36 µM
activity factor IC50(1)/IC50(3a–4d), SW620C [7, 15]: (0.764)
IC50 [8, 17]: 6.01 µM
activity factor IC50(1)/IC50(3a–4d), SW620D [8, 15]: (0.690)
IC50 ([9]; exposure time 72 h, n = 3, ABCC1- and ABCB1-overexpressing MDR line): 5.46 µM
activity factor IC50(1)/IC50(3a–4d), SW620E [9, 15]: (0.741)
IC50 ([10]; exposure time 72 h, n = 3, ABCC1-overexpressing MDR line): 3.24 µM
activity factor IC50(1)/IC50(3a–4d), SW620M [10, 15]: (1.07)
IC50 [11, 17]: 5.01 µM
activity factor IC50(1)/IC50(3a–4d), SW620V [11, 15]: (0.687)
IC50 [12, 16]: 3.68 µM
activity factor IC50(1)/IC50(3a–4d), SW620Mito [12, 15]: (1.06)
Cell cycle fraction G1, 24 h ([13]; SW620, 24 h): 52.8 ± 1.2%
Cell cycle fraction G2/M, 24 h ([13]; SW620, 24 h): 33.3 ± 1.0%
Cell cycle fraction S, 24 h ([13]; SW620, 24 h): 13.5 ± 0.4%
Cell cycle fraction G1, 48 h ([13]; SW620, 48 h): 46.8 ± 0.7%
Cell cycle fraction G2/M, 48 h ([13]; SW620, 48 h): 39.1 ± 0.3%
Cell cycle fraction S, 48 h ([13]; SW620, 48 h): 13.5 ± 0.8%
ROS generation (in words) [14]: increase the level of ROS
